Measurements published in PubChem BioAssay (NCI).
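Cells were grown in 96-well plates and exposed to each compound for 48 hours at five concentrations; endpoints were interpolated linearly between bracketing concentrations, or set to the highest concentration if not reached. At the TGI there is no net growth.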

Tests used:
Test in all cases: NCI anticancer screen, dose series, 48 h
786-0 renal = test system: 786-0 renal
A498 renal = test system: A498 renal
A549 NSCLC = test system: A549 NSCLC
ACHN renal = test system: ACHN renal
BT-549 breast = test system: BT-549 breast
CAKI-1 renal = test system: CAKI-1 renal
CCRF-CEM leukemia = test system: CCRF-CEM leukemia
COLO 205 colon = test system: COLO 205 colon
DU-145 prostate = test system: DU-145 prostate
EKVX NSCLC = test system: EKVX NSCLC
HCC-2998 colon = test system: HCC-2998 colon
HCT-116 colon = test system: HCT-116 colon
HCT-15 colon = test system: HCT-15 colon
HL-60(TB) leukemia = test system: HL-60(TB) leukemia
HOP-62 NSCLC = test system: HOP-62 NSCLC
HT29 colon = test system: HT29 colon
IGROV1 ovarian = test system: IGROV1 ovarian
K-562 leukemia = test system: K-562 leukemia
KM12 colon = test system: KM12 colon
M14 melanoma = test system: M14 melanoma
MALME-3M melanoma = test system: MALME-3M melanoma
MCF7 breast = test system: MCF7 breast
MDA-MB-231 breast = test system: MDA-MB-231 breast
MDA-MB-435 = test system: MDA-MB-435
MDA-N = test system: MDA-N
MOLT-4 leukemia = test system: MOLT-4 leukemia
NCI-H460 lung = test system: NCI-H460 lung
NCI/ADR-RES ovarian = test system: NCI/ADR-RES ovarian
OVCAR-3 ovarian = test system: OVCAR-3 ovarian
OVCAR-5 ovarian = test system: OVCAR-5 ovarian
OVCAR-8 ovarian = test system: OVCAR-8 ovarian
PC-3 prostate = test system: PC-3 prostate
RPMI-8226 leukemia = test system: RPMI-8226 leukemia
RXF 393 renal = test system: RXF 393 renal
SF-268 CNS = test system: SF-268 CNS
SF-539 CNS = test system: SF-539 CNS
SK-MEL-2 melanoma = test system: SK-MEL-2 melanoma
SK-MEL-28 melanoma = test system: SK-MEL-28 melanoma
SK-MEL-5 melanoma = test system: SK-MEL-5 melanoma
SK-OV-3 ovarian = test system: SK-OV-3 ovarian
SN12C renal = test system: SN12C renal
SNB-19 CNS = test system: SNB-19 CNS
SNB-75 CNS = test system: SNB-75 CNS
SR leukemia = test system: SR leukemia
SW-620 colon = test system: SW-620 colon
T-47D breast = test system: T-47D breast
TK-10 renal = test system: TK-10 renal
U251 CNS = test system: U251 CNS
UACC-257 melanoma = test system: UACC-257 melanoma
UACC-62 melanoma = test system: UACC-62 melanoma
UO-31 renal = test system: UO-31 renal
HOP-92 NSCLC = test system: HOP-92 NSCLC
HS 578T breast = test system: HS 578T breast
LOX IMVI melanoma = test system: LOX IMVI melanoma
NCI-H226 lung = test system: NCI-H226 lung
NCI-H23 lung = test system: NCI-H23 lung
NCI-H522 lung = test system: NCI-H522 lung
OVCAR-4 ovarian = test system: OVCAR-4 ovarian
SF-295 CNS = test system: SF-295 CNS

Q: Which TGI (786-0 renal) does the source give for `Cc1cc2c(s1)C(N)CC2=O` (configuration not stated) here?
A: > 100 µM

Q: What about the TGI (A498 renal) of the same compound?
A: > 100 µM

Q: What about the TGI (A549 NSCLC) of the same compound?
A: > 100 µM

Q: What about the TGI (ACHN renal) of the same compound?
A: > 100 µM

Q: And the TGI (BT-549 breast)?
A: > 100 µM

Q: And the TGI (CAKI-1 renal)?
A: > 100 µM

Q: What about the TGI (CCRF-CEM leukemia) of the same compound?
A: > 100 µM

Q: And the TGI (COLO 205 colon)?
A: > 100 µM

Q: And the TGI (DU-145 prostate)?
A: > 100 µM

Q: And the TGI (EKVX NSCLC)?
A: > 100 µM

Q: What about the TGI (HCC-2998 colon) of the same compound?
A: > 100 µM

Q: What about the TGI (HCT-116 colon) of the same compound?
A: > 100 µM

Q: And the TGI (HCT-15 colon)?
A: > 100 µM

Q: What about the TGI (HL-60(TB) leukemia) of the same compound?
A: > 100 µM

Q: What about the TGI (HOP-62 NSCLC) of the same compound?
A: > 100 µM

Q: What about the TGI (HT29 colon) of the same compound?
A: > 100 µM

Q: What about the TGI (IGROV1 ovarian) of the same compound?
A: > 100 µM

Q: And the TGI (K-562 leukemia)?
A: > 100 µM

Q: What about the TGI (KM12 colon) of the same compound?
A: > 100 µM

Q: And the TGI (M14 melanoma)?
A: > 100 µM

Q: And the TGI (MALME-3M melanoma)?
A: > 100 µM

Q: What about the TGI (MCF7 breast) of the same compound?
A: > 100 µM

Q: And the TGI (MDA-MB-231 breast)?
A: > 100 µM

Q: What about the TGI (MDA-MB-435) of the same compound?
A: > 100 µM

Q: What about the TGI (MDA-N) of the same compound?
A: > 100 µM

Q: What about the TGI (MOLT-4 leukemia) of the same compound?
A: > 100 µM

Q: What about the TGI (NCI-H460 lung) of the same compound?
A: > 100 µM

Q: What about the TGI (NCI/ADR-RES ovarian) of the same compound?
A: > 100 µM

Q: And the TGI (OVCAR-3 ovarian)?
A: > 100 µM

Q: And the TGI (OVCAR-5 ovarian)?
A: > 100 µM

Q: And the TGI (OVCAR-8 ovarian)?
A: > 100 µM

Q: And the TGI (PC-3 prostate)?
A: > 100 µM

Q: What about the TGI (RPMI-8226 leukemia) of the same compound?
A: > 100 µM

Q: And the TGI (RXF 393 renal)?
A: > 100 µM

Q: What about the TGI (SF-268 CNS) of the same compound?
A: > 100 µM

Q: And the TGI (SF-539 CNS)?
A: > 100 µM

Q: And the TGI (SK-MEL-2 melanoma)?
A: > 100 µM

Q: And the TGI (SK-MEL-28 melanoma)?
A: > 100 µM

Q: What about the TGI (SK-MEL-5 melanoma) of the same compound?
A: > 100 µM

Q: And the TGI (SK-OV-3 ovarian)?
A: > 100 µM

Q: What about the TGI (SN12C renal) of the same compound?
A: > 100 µM

Q: And the TGI (SNB-19 CNS)?
A: > 100 µM

Q: What about the TGI (SNB-75 CNS) of the same compound?
A: > 100 µM

Q: What about the TGI (SR leukemia) of the same compound?
A: > 100 µM

Q: What about the TGI (SW-620 colon) of the same compound?
A: > 100 µM

Q: What about the TGI (T-47D breast) of the same compound?
A: > 100 µM

Q: What about the TGI (TK-10 renal) of the same compound?
A: > 100 µM

Q: And the TGI (U251 CNS)?
A: > 100 µM

Q: And the TGI (UACC-257 melanoma)?
A: > 100 µM

Q: And the TGI (UACC-62 melanoma)?
A: > 100 µM

Q: And the TGI (UO-31 renal)?
A: > 100 µM

Q: `OC(c1ccoc1)c1cc2ccccc2s1` (configuration not stated) was tested. Which TGI (786-0 renal) did it give?
A: > 10 µM

Q: What about the TGI (A549 NSCLC) of the same compound?
A: > 10 µM

Q: And the TGI (ACHN renal)?
A: > 10 µM

Q: What about the TGI (CAKI-1 renal) of the same compound?
A: > 10 µM

Q: What about the TGI (CCRF-CEM leukemia) of the same compound?
A: > 10 µM

Q: What about the TGI (COLO 205 colon) of the same compound?
A: > 10 µM

Q: What about the TGI (DU-145 prostate) of the same compound?
A: > 10 µM

Q: What about the TGI (EKVX NSCLC) of the same compound?
A: > 10 µM

Q: What about the TGI (HCC-2998 colon) of the same compound?
A: > 10 µM

Q: What about the TGI (HCT-116 colon) of the same compound?
A: > 10 µM

Q: What about the TGI (HCT-15 colon) of the same compound?
A: > 10 µM

Q: What about the TGI (HL-60(TB) leukemia) of the same compound?
A: > 10 µM

Q: What about the TGI (HOP-62 NSCLC) of the same compound?
A: > 10 µM

Q: And the TGI (HOP-92 NSCLC)?
A: > 10 µM

Q: And the TGI (HS 578T breast)?
A: > 10 µM

Q: And the TGI (HT29 colon)?
A: > 10 µM

Q: And the TGI (IGROV1 ovarian)?
A: > 10 µM

Q: What about the TGI (K-562 leukemia) of the same compound?
A: > 10 µM

Q: What about the TGI (KM12 colon) of the same compound?
A: > 10 µM

Q: What about the TGI (LOX IMVI melanoma) of the same compound?
A: > 10 µM

Q: What about the TGI (M14 melanoma) of the same compound?
A: > 10 µM

Q: And the TGI (MCF7 breast)?
A: > 10 µM

Q: And the TGI (MDA-MB-231 breast)?
A: > 10 µM

Q: And the TGI (MDA-MB-435)?
A: > 10 µM

Q: What about the TGI (MDA-N) of the same compound?
A: > 10 µM

Q: And the TGI (MOLT-4 leukemia)?
A: > 10 µM

Q: What about the TGI (NCI-H226 lung) of the same compound?
A: > 10 µM

Q: What about the TGI (NCI-H23 lung) of the same compound?
A: > 10 µM

Q: What about the TGI (NCI-H460 lung) of the same compound?
A: > 10 µM

Q: And the TGI (NCI-H522 lung)?
A: > 10 µM

Q: What about the TGI (NCI/ADR-RES ovarian) of the same compound?
A: > 10 µM

Q: What about the TGI (OVCAR-3 ovarian) of the same compound?
A: > 10 µM

Q: And the TGI (OVCAR-4 ovarian)?
A: > 10 µM

Q: And the TGI (OVCAR-5 ovarian)?
A: > 10 µM

Q: What about the TGI (OVCAR-8 ovarian) of the same compound?
A: > 10 µM

Q: And the TGI (PC-3 prostate)?
A: > 10 µM

Q: What about the TGI (RPMI-8226 leukemia) of the same compound?
A: > 10 µM

Q: And the TGI (RXF 393 renal)?
A: > 10 µM

Q: What about the TGI (SF-268 CNS) of the same compound?
A: > 10 µM

Q: What about the TGI (SF-295 CNS) of the same compound?
A: > 10 µM

Q: And the TGI (SF-539 CNS)?
A: > 10 µM

Q: And the TGI (SK-MEL-2 melanoma)?
A: > 10 µM

Q: And the TGI (SK-MEL-28 melanoma)?
A: > 10 µM

Q: And the TGI (SK-MEL-5 melanoma)?
A: > 10 µM

Q: What about the TGI (SK-OV-3 ovarian) of the same compound?
A: > 10 µM

Q: What about the TGI (SN12C renal) of the same compound?
A: > 10 µM

Q: And the TGI (SNB-19 CNS)?
A: > 10 µM

Q: And the TGI (SNB-75 CNS)?
A: > 10 µM

Q: And the TGI (SR leukemia)?
A: > 10 µM

Q: And the TGI (SW-620 colon)?
A: > 10 µM

Q: And the TGI (T-47D breast)?
A: > 10 µM

Q: What about the TGI (TK-10 renal) of the same compound?
A: > 10 µM

Q: And the TGI (U251 CNS)?
A: > 10 µM

Q: What about the TGI (UACC-257 melanoma) of the same compound?
A: > 10 µM

Q: What about the TGI (UACC-62 melanoma) of the same compound?
A: > 10 µM

Q: And the TGI (UO-31 renal)?
A: > 10 µM
